Patent US12090141B2, “Use of clemizole compounds for treatment of inflammatory conditions” (priority 2015, dated 2024)

Columns and labels:
NASH mice [1] = assay: NAFLD activity score, HE staining of liver sections of NASH mice; assay type: in vivo, C57BL/6 mice; conditions: for NAS (mean ± SD): n = 6, NAFLD activity score by Kleiner criteria; for Steatosis score 1, number of mice: n = 6, score 1 = 5-33%; for Lobular inflammation score 2, number of mice: n = 6, score 2 = 2-4 foci/200x; for Hepatocyte ballooning score 2, number of mice: n = 6, score 2 = Many cells/prominent ballooning; for Lobular inflammation score 3, number of mice: n = 6, score 3 = >4 foci/200x; for Steatosis score 0, number of mice: n = 6, score 0 = <5%; for Hepatocyte ballooning score 1, number of mice: n = 6, score 1 = Few Balloon cells; for Lobular inflammation score 1, number of mice: n = 6, score 1 = <2 foci/200x
Procedure: (§1) NASH was induced in 55 male mice by a single subcutaneous injection of 200 μg streptozotocin (STZ, Sigma-Aldrich, USA) solution 2 days after birth and feeding with high fat diet (HFD, 57 kcal % fat, cat #: HFD32, CLEA Japan, Inc., Japan) after 4 weeks of age. Mice that had been induced have NASH by this method are referred to below as NASH mice.
(§2) Compound D was orally administered at doses of 89 mg/kg twice daily.
(§3) For HE staining, sections were cut from paraffin blocks of liver tissue prefixed in Bouin's solution and stained with Lillie-Mayer's Hematoxylin (Muto Pure Chemicals Co., Ltd., Japan) and eosin solution (Wako Pure Chemical Industries). NAFLD Activity score (NAS) was calculated according to the criteria of Kleiner (Kleiner D E. et al., Hepatology, 2005; 41:1313). To visualize collagen deposition, Bouin's fixed liver sections were stained using picro-Sirius red solution (Waldeck, Germany).
Definition of NAS Components

NASH mice [2] = assay: Liver fibrosis area, Sirius red staining in NASH mice; assay type: in vivo, C57BL/6 mice; conditions: for Sirius red-positive area (mean ± SD): liver fibrosis area, n = 6
Procedure: as §3
For quantitative analysis of fibrosis areas bright field images of Sirius red-stained sections were captured around the central vein for livers using a digital camera (DFC280; Leica, Germany) at 200-fold magnification, and the positive areas in 5 fields/section were measured using ImageJ software (National Institute of Health, USA).

mice with HCC = assay: Macroscopic analysis of liver tumor nodules in mice with HCC; assay type: in vivo, C57BL/6 mice; conditions: for Maximum diameter of nodules (mean ± SD) / Number of nodules (mean ± SD): macroscopically visible tumor nodules on liver surface, n = 1-3
Procedure: The number of macroscopically visible tumor nodules formed on the liver surface was measured. The maximum diameter of macroscopically visible tumor nodules formed on the liver surface was measured.

NASH mice [3] = assay: Whole blood glucose and plasma ALT in NASH mice; assay type: in vivo, C57BL/6 mice; conditions: for Whole blood glucose levels vs Vehicle group: during the study period, non-fasting; for Plasma ALT (mean ± SD): time of sacrifice, n = 6
Procedure: Non-fasting blood was collected in polypropylene tubes with anticoagulant (Novo-heparin, Mochida Pharmaceutical, Japan) from submandibular bleeding at 6 (before dosing), 7 and 8 weeks of age. The collected blood samples were centrifuged and the supernatant were collected as heparinized plasma.
Non-fasting blood glucose in whole blood was measured using LIFE CHECK (EIDIA Co. Ltd., Japan). Plasma ALT was measured by FUJI DRI-CHEM 7000 (Fujifilm Corporation, Japan).

NASH mice [4] = assay: Body weight and liver weight in NASH mice (sacrifice 9 wk); conditions: for Mean body weight on the day of sacrifice vs Vehicle group / Mean liver weight on the day of sacrifice vs Vehicle group / Mean liver-to-body weight ratio on the day of sacrifice vs Vehicle group: 9 wk; for Body weight (mean ± SD): day of sacrifice 9 wk, n = 6, oral from 6 wks, A-C 258 then 129 mg/kg once daily, D 89 mg/kg twice daily; for Liver weight (mean ± SD) / Liver-to-body weight ratio (mean ± SD): sacrifice 9 wk, n = 6
Procedure: as §1, §2
C57BL/6 mice (14-day-pregnant female) were obtained from Japan SLC, Inc. (Shizuoka, Japan). All animals used in the study were housed and cared for in accordance with the Japanese Pharmacological Society Guidelines for Animal Use.

NASH induced HCC mice = assay: Body weight and liver weight in NASH induced HCC mice (sacrifice 18 wk); assay type: in vivo; conditions: for Body weight (mean ± SD) / Liver weight (mean ± SD) / Liver-to-body weight ratio (mean ± SD): NASH induced HCC mice, 18 wk, n = 1-3
Source text: Table 1 below summarizes the treatment schedule.

HCC [5] = conditions: phase 2 study, cited from earlier work
HCC [6] = conditions: phase 3 study, cited from earlier work
[7] = tested on: hepatocellular carcinoma (HCC); assay: Phase IIa open label pilot study of clemizole in subjects with hepatocellular carcinoma; assay type: in vivo, human
Procedure: The completed study treats up to 40 patients. Initial clinical results from two patients with hepatocellular carcinoma who were administered 200 mg clemizole for 3 or 5 months are described below.

CYP3A4 = CYP3A4 (Homo sapiens, UniProt P08684); assay: Clemizole metabolism by CYP450 enzymes in vitro; assay type: in vitro ADME
[8] = treatment period, 4 mice per group

CYP3A4, sequence (P08684 whole entry): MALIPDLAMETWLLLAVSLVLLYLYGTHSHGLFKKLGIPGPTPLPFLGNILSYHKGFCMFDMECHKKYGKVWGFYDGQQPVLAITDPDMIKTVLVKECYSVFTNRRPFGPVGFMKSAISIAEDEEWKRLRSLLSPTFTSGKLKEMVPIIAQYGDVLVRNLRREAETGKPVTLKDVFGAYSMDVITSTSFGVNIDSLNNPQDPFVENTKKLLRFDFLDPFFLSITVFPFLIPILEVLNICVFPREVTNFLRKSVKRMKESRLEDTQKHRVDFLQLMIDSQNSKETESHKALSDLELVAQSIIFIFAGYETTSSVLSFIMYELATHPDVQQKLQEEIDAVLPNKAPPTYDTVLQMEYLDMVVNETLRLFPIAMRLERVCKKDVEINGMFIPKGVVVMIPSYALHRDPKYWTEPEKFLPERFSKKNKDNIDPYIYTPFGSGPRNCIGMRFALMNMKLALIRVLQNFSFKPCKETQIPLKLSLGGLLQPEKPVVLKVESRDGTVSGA

| Compound | NAS (mean ± SD) (NASH mice [1]) | Steatosis score 1, number of mice (NASH mice [1]) | Lobular inflammation score 2, number of mice (NASH mice [1]) | Hepatocyte ballooning score 2, number of mice (NASH mice [1]) | Lobular inflammation score 3, number of mice (NASH mice [1]) | Fibrosis area at the time of sacrifice vs Vehicle group (NASH mice [2]) | Sirius red-positive area (mean ± SD) (NASH mice [2]) [%] | Maximum diameter of nodules (mean ± SD) (mice with HCC; 18 wk) [mm] | Number of nodules (mean ± SD) (mice with HCC; 18 wk) | Whole blood glucose levels vs Vehicle group (NASH mice [3]) | Plasma ALT (mean ± SD) (NASH mice [3]) [U/L] | Mean body weight on the day of sacrifice vs Vehicle group (NASH mice [4]) | Mean liver weight on the day of sacrifice vs Vehicle group (NASH mice [4]) | Mean liver-to-body weight ratio on the day of sacrifice vs Vehicle group (NASH mice [4]) | Body weight (mean ± SD) (NASH mice [4]) [g] | Liver weight (mean ± SD) (NASH mice [4]) [mg] | Liver-to-body weight ratio (mean ± SD) (NASH mice [4]) [%] | Body weight (mean ± SD) (NASH induced HCC mice) [g] | Liver weight (mean ± SD) (NASH induced HCC mice) [mg] | Liver-to-body weight ratio (mean ± SD) (NASH induced HCC mice) [%] | other results |
| --- | --- | --- | --- | --- | --- | --- | --- | --- | --- | --- | --- | --- | --- | --- | --- | --- | --- | --- | --- | --- | --- |
| CCN(CC)CCC[C@H](C)Nc1ccnc2cc(Cl)ccc12 [Compound C, S-chloroquine] | 5.3 ± 0.5 | 6 | 4 | 6 | 2 | no significant differences | 0.90 ± 0.44 | 3.5 ± 5.0 | 1.5 ± 2.1 | no significant differences | 9 ± 3 | significantly decreased | significantly decreased | no significant differences | 13.7 ± 1.3 | 810 ± 77 | 5.9 ± 0.4 | 17.9 ± 2.8 | 1353 ± 178 | 7.6 ± 0.1 | Mice died before reaching week 18 (NASH induced HCC mice; [8]): Two out of 4 |
| CNC(=O)c1cc(Oc2ccc(NC(=O)Nc3ccc(Cl)c(C(F)(F)F)c3)cc2)ccn1 [sorafenib] |  |  |  |  |  |  |  |  |  |  |  |  |  |  |  |  |  |  |  |  | Toxicity: diarrhea (HCC [5]; all grades): over 40%; Toxicity: fatigue (HCC [5]; all grades): 30%; Toxicity: hand-foot skin reaction (HCC [5]; all grades): over 30%; Grade 3/4 drug-related toxicity: diarrhea (HCC [5]): 8.0%; Grade 3/4 drug-related toxicity: fatigue (HCC [5]): 9.5%; Grade 3/4 drug-related toxicity: hand-foot skin reaction (HCC [5]): 5.1%; Median time to progression (TTP) (HCC [5]): 4.2 months; Hypophosphatemia (HCC [6]; grade 3): 11%; Thrombocytopenia (HCC [6]; grade 3 or 4): 4%; Median time to radiologic progression (HCC [6]): 5.5 months; Overall incidence of treatment-related adverse events (HCC [6]): 80% |
| CCN(CC)CCCC(C)Nc1ccnc2cc(Cl)ccc12 (stereo not drawn) [Compound A, Recemic mixture of R-chloroquine and S-chloroquine] | 5.2 ± 0.8 | 5 | 1 | 3 | 5 | no significant differences | 0.87 ± 0.23 | 6.1 ± 0.0 | 2.0 ± 0.0 | no significant differences | 21 ± 13 | no significant differences | no significant differences | no significant differences | 15.0 ± 1.9 | 1045 ± 243 | 7.0 ± 1.4 | 17.5 ± 0.0 | 1443 ± 0 | 8.2 ± 0.0 | Steatosis score 0, number of mice (NASH mice [1]): 1; Hepatocyte ballooning score 1, number of mice (NASH mice [1]): 3; Mice died before reaching week 18 (NASH induced HCC mice; [8]): Three out of 4 |
| Clc1ccc(Cn2c(CN3CCCC3)nc3ccccc32)cc1 [Compound D, clemizole] | 4.3 ± 1.0 | 5 | 1 | 6 | 1 | no significant differences | 0.95 ± 0.39 | 0.7 ± 1.2 | 0.3 ± 0.6 | no significant differences | 18 ± 10 | no significant differences | no significant differences | no significant differences |  | 1047 ± 76 | 6.8 ± 0.4 |  | 1710 ± 113 | 6.3 ± 0.8 | HCC status on follow up dynamic liver CT imaging ([7]; Patient #1, 200 mg clemizole orally thrice daily, after 3 months): the HCC remained stable; Tolerability (complaints or side effects) ([7]; Patient #1, 200 mg thrice daily, after 3 months): no complaints or side effects; HCC status on follow up dynamic liver magnetic resonance imaging ([7]; Patient #2, 200 mg clemizole orally thrice daily, after 5 months): the HCC remained stable; Tolerability (complaints or side effects) ([7]; Patient #2, 200 mg thrice daily, after 5 months): no complaints or side effects; NAS compared with the Vehicle group (NASH mice [1]): significant reduction; Steatosis score 0, number of mice (NASH mice [1]): 1; Lobular inflammation score 1, number of mice (NASH mice [1]): 4; Role of CYP3A4 in clemizole biotransformation in human liver (CYP3A4): mediates the majority of this drug biotransformation reaction; Survived mice with absence of visible tumor nodules on the liver surface (mice with HCC; 18 wk): 2 out of 3; Tumor formation in mouse livers (FIG. 8, representative images) (mice with HCC; mouse, in vivo): inhibition of tumor formation; Mice died before reaching week 18 (NASH induced HCC mice; male, C57BL/6, mouse, in vivo): one out of 4 |
| CCN(CC)CCC[C@@H](C)Nc1ccnc2cc(Cl)ccc12 [Compound B, R-chloroquine] | 4.3 ± 0.5 | 5 | 4 | 5 |  | no significant differences | 0.78 ± 0.35 | 11.1 ± 7.0 | 2.0 ± 1.4 | no significant differences | 14 ± 6 | no significant differences | no significant differences | no significant differences | 14.5 ± 2.4 | 934 ± 135 | 6.5 ± 0.4 | 20.4 ± 0.3 | 1616 ± 635 | 7.9 ± 3.0 | NAS compared with the Vehicle group (NASH mice [1]): significant reduction; Steatosis score 0, number of mice (NASH mice [1]): 1; Lobular inflammation score 1, number of mice (NASH mice [1]): 2; Hepatocyte ballooning score 1, number of mice (NASH mice [1]): 1; Mice died before reaching week 18 (NASH induced HCC mice; [8]): Two out of 4 |
